The text below walks through data of patent US20240376084A1, “INHIBITORS OF ALPHA-HEMOLYSIN OF STAPHYLOCOCCUS AUREUS” (Helmholtz-Zentrum Fur Infektionsforschung GmbH, priority 2021, published 2024).

The target of experiment [1] is hemolysin alpha from Staphylococcus aureus (Staphylococcus aureus, UniProt P09616). Nature of the experiment: cell-based.
Experiment [2] has as its target S. aureus Alpha hemolysin (Staphylococcus aureus, UniProt P09616). In words: cell-based. To be noted: A549-LDH Assay activity.

hemolysin alpha from Staphylococcus aureus, sequence (P09616 27-319 limits assumed): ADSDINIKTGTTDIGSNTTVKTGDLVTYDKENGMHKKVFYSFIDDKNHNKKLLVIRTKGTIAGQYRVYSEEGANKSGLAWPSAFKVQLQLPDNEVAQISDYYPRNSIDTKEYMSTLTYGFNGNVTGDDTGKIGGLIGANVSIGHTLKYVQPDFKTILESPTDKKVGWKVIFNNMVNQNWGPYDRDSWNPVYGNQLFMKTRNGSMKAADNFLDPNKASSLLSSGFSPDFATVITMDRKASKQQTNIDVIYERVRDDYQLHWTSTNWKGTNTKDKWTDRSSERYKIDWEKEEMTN
S. aureus Alpha hemolysin, sequence (P09616 27-319 limits assumed): as above

The term IC50 denotes the concentration that inhibits the measured activity by half. A lower IC50 goes with greater potency. What is called EC50 is the concentration giving half of the maximal effect. The low end stands for greater potency, the high end for weaker potency. For `Cc1cc2[nH]c(=O)c(=O)[nH]c2cc1S(=O)(=O)Nc1ccc(C2CCCCC2)cc1` [Compound 86, N-(4-cyclohexylphenyl)-7-methyl-2,3-dioxo-1,2,3,4-tetrahydroquinoxaline-6-sulfonamide], the IC50 in experiment [1] fell in the range of 100 to 1000 nM. For the same compound, in experiment [2], the EC50 is 100 to 1000 nM.

For `CCCc1ccc(NS(=O)(=O)c2cc3[nH]c(=O)c(=O)[nH]c3cc2F)cc1` [Compound 87, 7-fluoro-2,3-dioxo-N-(4-propylphenyl)-1,2,3,4-tetrahydroquinoxaline-6-sulfonamide], the IC50 in experiment [1] lay in the range of 100 to 1000 nM. In addition, in experiment [2], the EC50 lay in the range of 30 to 100 nM.

`Cc1cc(NS(=O)(=O)c2cc3[nH]c(=O)c(=O)[nH]c3cc2Cl)ccc1-c1ccoc1` [Compound 88, 7-chloro-N-(4-(furan-3-yl)-3-methylphenyl)-2,3-dioxo-1,2,3,4-tetrahydroquinoxaline-6-sulfonamide] returned a 50% inhibitory concentration (IC50) in experiment [1] of 30 to 100 nM. The same compound registered an EC50 in experiment [2] of 100 to 1000 nM.

Regarding `Cc1ccccc1-c1ccc(NS(=O)(=O)c2cc3[nH]c(=O)c(=O)[nH]c3cc2C)cc1` [Compound 89, 7-methyl-N-(2′-methyl-[1,1′-biphenyl]-4-yl)-2,3-dioxo-1,2,3,4-tetrahydroquinoxaline-6-sulfonamide], the IC50 in experiment [1] lay within 100 to 1000 nM. For the same compound, the EC50 in experiment [2] is 100 to 1000 nM.

Take `Cc1ccccc1-c1ccc(NS(=O)(=O)c2cc3[nH]c(=O)c(=O)[nH]c3cc2C)cc1Cl` [Compound 90, N-(2-chloro-2′-methyl-[1,1′-biphenyl]-4-yl)-7-methyl-2,3-dioxo-1,2,3,4-tetrahydroquinoxaline-6-sulfonamide]: the 50% inhibitory concentration (IC50) in experiment [1] lay in the range of 100 to 1000 nM. The concentration giving a half-maximal response (EC50) in experiment [2] fell in the range of 100 to 1000 nM.

Turning to `Cc1cc(NS(=O)(=O)c2cc3[nH]c(=O)c(=O)[nH]c3cc2C)ccc1C(F)(F)F` [Compound 91, 7-methyl-N-(3-methyl-4-(trifluoromethyl)phenyl)-2,3-dioxo-1,2,3,4-tetrahydroquinoxaline-6-sulfonamide], in experiment [1], the half-inhibitory concentration (IC50) is 100 to 1000 nM. In experiment [2], this compound returned a concentration for a half-maximal effect (EC50) of 100 to 1000 nM.

`CCc1ccc(NS(=O)(=O)c2cc3[nH]c(=O)c(=O)[nH]c3cc2C)cc1` [Compound 92, N-(4-ethylphenyl)-7-methyl-2,3-dioxo-1,2,3,4-tetrahydroquinoxaline-6-sulfonamide] returned an IC50 in experiment [1] of under 30 nM. In experiment [2], this compound displayed a half-maximal effective concentration (EC50) of under 30 nM.

`O=c1[nH]c2cc(Cl)c(S(=O)(=O)Nc3ccc(C(F)(F)F)cc3)cc2[nH]c1=O` [Compound 93, 7-chloro-2,3-dioxo-N-(4-(trifluoromethyl)phenyl)-1,2,3,4-tetrahydroquinoxaline-6-sulfonamide]: the IC50 in experiment [1] lay within 100 to 1000 nM. For the same compound, in experiment [2], the EC50 was 100 to 1000 nM.

`O=c1[nH]c2cc(Cl)c(S(=O)(=O)Nc3ccc(-c4ccncc4)c(Cl)c3)cc2[nH]c1=O` [Compound 94, 7-chloro-N-(3-chloro-4-(pyridin-4-yl)phenyl)-2,3-dioxo-1,2,3,4-tetrahydroquinoxaline-6-sulfonamide] displayed an IC50 in experiment [1] of 100 to 1000 nM. In addition, in experiment [2], the concentration giving a half-maximal response (EC50) was in the range of 100 to 1000 nM.

As to `Cc1cc2[nH]c(=O)c(=O)[nH]c2cc1S(=O)(=O)Nc1ccc(Br)cc1` [Compound 97, N-(4-bromophenyl)-7-methyl-2,3-dioxo-1,2,3,4-tetrahydroquinoxaline-6-sulfonamide], the IC50 in experiment [1] lay in the range of 100 to 1000 nM. Besides, the half-maximal effective concentration (EC50) in experiment [2] is 30 to 100 nM.

The compound `O=c1[nH]c2cc(Cl)c(S(=O)(=O)Nc3ccc(-c4ccccc4)cc3)cc2[nH]c1=O` [Compound 98, N-([1,1′-biphenyl]-4-yl)-7-chloro-2,3-dioxo-1,2,3,4-tetrahydroquinoxaline-6-sulfonamide] yielded a concentration for half-maximal inhibition (IC50) in experiment [1] of 100 to 1000 nM. The same compound came in with an EC50 in experiment [2] of 100 to 1000 nM.

In experiment [1], `O=c1[nH]c2cc(F)c(S(=O)(=O)Nc3ccc(-c4cccnc4)c(Cl)c3)cc2[nH]c1=O` [Compound 99, N-(3-chloro-4-(pyridin-3-yl)phenyl)-7-fluoro-2,3-dioxo-1,2,3,4-tetrahydroquinoxaline-6-sulfonamide] displayed an IC50 of 100 to 1000 nM. The EC50 in experiment [2] lay within 1000 to 6000 nM.

Regarding `CC(C)c1cc2[nH]c(=O)c(=O)[nH]c2cc1S(=O)(=O)Nc1ccc(-c2ccsc2)c(Cl)c1` [Compound 100, N-(3-chloro-4-(thiophen-3-yl)phenyl)-7-isopropyl-2,3-dioxo-1,2,3,4-tetrahydroquinoxaline-6-sulfonamide], in experiment [1], the IC50 lay in the range of 100 to 1000 nM. This compound came in with an EC50 in experiment [2] of 1000 to 6000 nM.

Turning to `CC(C)c1ccc(NS(=O)(=O)c2cc3[nH]c(=O)c(=O)[nH]c3cc2F)cc1` [Compound 101, 7-fluoro-N-(4-isopropylphenyl)-2,3-dioxo-1,2,3,4-tetrahydroquinoxaline-6-sulfonamide], the half-maximal inhibitory concentration (IC50) in experiment [1] was 100 to 1000 nM. In experiment [2], this compound registered an EC50 of 100 to 1000 nM.

In turn, `COc1ccccc1-c1c(C)cc(NS(=O)(=O)c2cc3[nH]c(=O)c(=O)[nH]c3cc2C)cc1C` [Compound 102, N-(2′-methoxy-2,6-dimethyl-[1,1′-biphenyl]-4-yl)-7-methyl-2,3-dioxo-1,2,3,4-tetrahydroquinoxaline-6-sulfonamide] yielded an IC50 in experiment [1] of 100 to 1000 nM. The half-maximal effective concentration (EC50) in experiment [2] was 30 to 100 nM.

Compound `Cc1ccccc1-c1ccc(NS(=O)(=O)c2cc3[nH]c(=O)c(=O)[nH]c3cc2C)cc1C` [Compound 103, N-(2,2′-dimethyl-[1,1′-biphenyl]-4-yl)-7-methyl-2,3-dioxo-1,2,3,4-tetrahydroquinoxaline-6-sulfonamide] had an IC50 in experiment [1] of 100 to 1000 nM. The same compound registered an EC50 in experiment [2] of 100 to 1000 nM.

As to `Cc1cc2[nH]c(=O)c(=O)[nH]c2cc1S(=O)(=O)Nc1cc(C)c(-c2ccccc2Cl)c(C)c1` [Compound 104, N-(2′-chloro-2,6-dimethyl-[1,1′-biphenyl]-4-yl)-7-methyl-2,3-dioxo-1,2,3,4-tetrahydroquinoxaline-6-sulfonamide], in experiment [1], the IC50 lay in the range of 100 to 1000 nM. For the same compound, the half-maximal effective concentration (EC50) in experiment [2] lay within 100 to 1000 nM.

In experiment [1], `O=c1[nH]c2cc(Cl)c(S(=O)(=O)Nc3ccc(-c4ccc(F)c(Cl)c4F)c(Cl)c3)cc2[nH]c1=O` [Compound 105, 7-chloro-N-(2,3′-dichloro-2′,4′-difluoro-[1,1′-biphenyl]-4-yl)-2,3-dioxo-1,2,3,4-tetrahydroquinoxaline-6-sulfonamide] returned a 50% inhibitory concentration (IC50) of 100 to 1000 nM. The compound further gave a concentration for a half-maximal effect (EC50) in experiment [2] of 100 to 1000 nM.

Regarding `Cc1cc(NS(=O)(=O)c2cc3[nH]c(=O)c(=O)[nH]c3cc2Cl)cc(C)c1-c1ccccc1` [Compound 106, 7-chloro-N-(2,6-dimethyl-[1,1′-biphenyl]-4-yl)-2,3-dioxo-1,2,3,4-tetrahydroquinoxaline-6-sulfonamide], in experiment [1], the half-inhibitory concentration (IC50) was in the range of 100 to 1000 nM. In experiment [2], this compound came in with a concentration for a half-maximal effect (EC50) of 30 to 100 nM.

In experiment [1], `Cc1cc2[nH]c(=O)c(=O)[nH]c2cc1S(=O)(=O)Nc1cc(C)c(-c2ccoc2)c(C)c1` [Compound 107, N-(4-(furan-3-yl)-3,5-dimethylphenyl)-7-methyl-2,3-dioxo-1,2,3,4-tetrahydroquinoxaline-6-sulfonamide] displayed an IC50 of 100 to 1000 nM. The 50% effective concentration (EC50) in experiment [2] is 30 to 100 nM.

`Cc1cc2[nH]c(=O)c(=O)[nH]c2cc1S(=O)(=O)Nc1ccc(-c2ccccc2Cl)cc1` [Compound 108, N-(2′-chloro-[1,1′-biphenyl]-4-yl)-7-methyl-2,3-dioxo-1,2,3,4-tetrahydroquinoxaline-6-sulfonamide]: the half-inhibitory concentration (IC50) in experiment [1] is 100 to 1000 nM. The same compound had an EC50 in experiment [2] of 100 to 1000 nM.

`CC(C)c1cc2[nH]c(=O)c(=O)[nH]c2cc1S(=O)(=O)Nc1ccc(-c2cccc(N(C)C)c2)c(Cl)c1` [Compound 109, N-(2-chloro-3′-(dimethylamino)-[1,1′-biphenyl]-4-yl)-7-isopropyl-2,3-dioxo-1,2,3,4-tetrahydroquinoxaline-6-sulfonamide] displayed an IC50 in experiment [1] of 100 to 1000 nM. The compound further had a concentration giving a half-maximal response (EC50) in experiment [2] of 100 to 1000 nM.

As for `Cc1cc(C2CC2)ccc1NS(=O)(=O)c1cc2[nH]c(=O)c(=O)[nH]c2cc1C` [Compound 110, N-(4-cyclopropyl-2-methylphenyl)-7-methyl-2,3-dioxo-1,2,3,4-tetrahydroquinoxaline-6-sulfonamide], the half-inhibitory concentration (IC50) in experiment [1] is 100 to 1000 nM. The compound further came in with an EC50 in experiment [2] of 30 to 100 nM.

The compound `Cc1cccc(-c2ccc(NS(=O)(=O)c3cc4[nH]c(=O)c(=O)[nH]c4cc3C)cc2)c1` [Compound 112, 7-methyl-N-(3′-methyl-[1,1′-biphenyl]-4-yl)-2,3-dioxo-1,2,3,4-tetrahydroquinoxaline-6-sulfonamide] had an IC50 in experiment [1] of 100 to 1000 nM. For the same compound, in experiment [2], the EC50 fell in the range of 100 to 1000 nM.

Regarding `CCc1ccccc1-c1ccc(NS(=O)(=O)c2cc3[nH]c(=O)c(=O)[nH]c3cc2C)cc1` [Compound 113, N-(2′-ethyl-[1,1′-biphenyl]-4-yl)-7-methyl-2,3-dioxo-1,2,3,4-tetrahydroquinoxaline-6-sulfonamide], the IC50 in experiment [1] fell in the range of 100 to 1000 nM. This compound also displayed an EC50 in experiment [2] of 100 to 1000 nM.

Regarding `COc1ccccc1-c1ccc(NS(=O)(=O)c2cc3[nH]c(=O)c(=O)[nH]c3cc2C)cc1` [Compound 114, N-(2′-methoxy-[1,1′-biphenyl]-4-yl)-7-methyl-2,3-dioxo-1,2,3,4-tetrahydroquinoxaline-6-sulfonamide], the IC50 in experiment [1] was in the range of 100 to 1000 nM. In experiment [2], this compound registered a half-maximal effective concentration (EC50) of 100 to 1000 nM.

Take `Cc1cc(NS(=O)(=O)c2cc3[nH]c(=O)c(=O)[nH]c3cc2C)ccc1C(C)C` [Compound 117, N-(4-isopropyl-3-methylphenyl)-7-methyl-2,3-dioxo-1,2,3,4-tetrahydroquinoxaline-6-sulfonamide]: in experiment [1], the IC50 was in the range of 100 to 1000 nM. The compound also registered an EC50 in experiment [2] of 100 to 1000 nM.

Turning to `Cc1cc2[nH]c(=O)c(=O)[nH]c2cc1S(=O)(=O)Nc1ccc(-c2ccccc2N(C)C)cc1` [Compound 119, N-(2′-(dimethylamino)-[1,1′-biphenyl]-4-yl)-7-methyl-2,3-dioxo-1,2,3,4-tetrahydroquinoxaline-6-sulfonamide], in experiment [1], the IC50 was in the range of 100 to 1000 nM. The EC50 in experiment [2] lay within 100 to 1000 nM.

As to `CCOC(=O)c1ccccc1-c1ccc(NS(=O)(=O)c2cc3[nH]c(=O)c(=O)[nH]c3cc2C)cc1` [Compound 120, ethyl 4′-((7-methyl-2,3-dioxo-1,2,3,4-tetrahydroquinoxaline)-6-sulfonamido)-[1,1′-biphenyl]-2-carboxylate], the IC50 in experiment [1] fell in the range of 100 to 1000 nM. This compound also came in with a concentration for a half-maximal effect (EC50) in experiment [2] of 1000 to 6000 nM.

Consider `COc1cc(NS(=O)(=O)c2cc3[nH]c(=O)c(=O)[nH]c3cc2C)ccc1Br` [Compound 121, N-(4-bromo-3-methoxyphenyl)-7-methyl-2,3-dioxo-1,2,3,4-tetrahydroquinoxaline-6-sulfonamide], for which, in experiment [1], the IC50 was in the range of 100 to 1000 nM. For the same compound, in experiment [2], the half-maximal effective concentration (EC50) lay in the range of 1000 to 6000 nM.
